In patent publication EP4745135A1 (Gluetacs Therapeutics (Shanghai) Co., Ltd., priority 2023, dated 2025):

Assays:
CK1α = biological target: T1, CK1α (Homo sapiens, UniProt P48729+Q96SW2); experiment: Western blot, degradation of substrate protein in hPBMCs; type: cell-based
T1 construct: effects of the compounds of the present disclosure on the expression of target proteins in cells; endogenous in cells; host or cells: human PBMCs (Milecell Biotechnologies)

WEE1 = biological target: T2, WEE1 (Homo sapiens, UniProt P30291+Q96SW2); experiment: as above; type: cell-based
T2 construct: effects of the compounds of the present disclosure on the expression of target proteins in cells; endogenous in cells; host or cells: human PBMCs (Milecell Biotechnologies)
T2 sequence (P30291 whole entry): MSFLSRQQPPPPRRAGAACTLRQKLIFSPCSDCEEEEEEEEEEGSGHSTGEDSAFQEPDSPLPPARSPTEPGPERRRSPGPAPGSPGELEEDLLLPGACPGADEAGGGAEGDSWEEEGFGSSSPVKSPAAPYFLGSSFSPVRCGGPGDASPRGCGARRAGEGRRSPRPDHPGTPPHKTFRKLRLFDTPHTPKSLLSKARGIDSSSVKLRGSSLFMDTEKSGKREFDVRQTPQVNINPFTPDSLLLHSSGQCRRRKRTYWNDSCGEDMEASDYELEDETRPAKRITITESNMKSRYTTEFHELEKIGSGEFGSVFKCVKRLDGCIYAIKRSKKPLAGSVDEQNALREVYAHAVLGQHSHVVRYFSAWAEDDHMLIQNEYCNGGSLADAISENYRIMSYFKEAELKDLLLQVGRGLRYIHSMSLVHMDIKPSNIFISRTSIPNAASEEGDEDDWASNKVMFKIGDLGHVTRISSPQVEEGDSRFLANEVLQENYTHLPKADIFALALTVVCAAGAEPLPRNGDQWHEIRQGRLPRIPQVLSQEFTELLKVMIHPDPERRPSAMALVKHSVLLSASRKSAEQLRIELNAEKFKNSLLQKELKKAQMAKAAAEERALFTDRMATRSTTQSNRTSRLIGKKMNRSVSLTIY
T2 sequence (Q96SW2 whole entry): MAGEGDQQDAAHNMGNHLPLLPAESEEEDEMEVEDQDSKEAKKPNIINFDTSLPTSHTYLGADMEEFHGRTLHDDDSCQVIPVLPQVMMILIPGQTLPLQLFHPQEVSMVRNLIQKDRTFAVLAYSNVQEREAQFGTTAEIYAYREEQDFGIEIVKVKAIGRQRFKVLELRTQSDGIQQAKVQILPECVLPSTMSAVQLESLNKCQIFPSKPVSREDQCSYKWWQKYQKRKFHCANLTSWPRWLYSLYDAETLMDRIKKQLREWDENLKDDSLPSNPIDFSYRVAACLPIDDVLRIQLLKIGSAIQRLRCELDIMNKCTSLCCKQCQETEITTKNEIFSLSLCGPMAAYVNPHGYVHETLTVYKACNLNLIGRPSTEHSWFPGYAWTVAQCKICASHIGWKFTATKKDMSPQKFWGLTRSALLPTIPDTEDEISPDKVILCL
T2 sequence (Q16531 whole entry partner): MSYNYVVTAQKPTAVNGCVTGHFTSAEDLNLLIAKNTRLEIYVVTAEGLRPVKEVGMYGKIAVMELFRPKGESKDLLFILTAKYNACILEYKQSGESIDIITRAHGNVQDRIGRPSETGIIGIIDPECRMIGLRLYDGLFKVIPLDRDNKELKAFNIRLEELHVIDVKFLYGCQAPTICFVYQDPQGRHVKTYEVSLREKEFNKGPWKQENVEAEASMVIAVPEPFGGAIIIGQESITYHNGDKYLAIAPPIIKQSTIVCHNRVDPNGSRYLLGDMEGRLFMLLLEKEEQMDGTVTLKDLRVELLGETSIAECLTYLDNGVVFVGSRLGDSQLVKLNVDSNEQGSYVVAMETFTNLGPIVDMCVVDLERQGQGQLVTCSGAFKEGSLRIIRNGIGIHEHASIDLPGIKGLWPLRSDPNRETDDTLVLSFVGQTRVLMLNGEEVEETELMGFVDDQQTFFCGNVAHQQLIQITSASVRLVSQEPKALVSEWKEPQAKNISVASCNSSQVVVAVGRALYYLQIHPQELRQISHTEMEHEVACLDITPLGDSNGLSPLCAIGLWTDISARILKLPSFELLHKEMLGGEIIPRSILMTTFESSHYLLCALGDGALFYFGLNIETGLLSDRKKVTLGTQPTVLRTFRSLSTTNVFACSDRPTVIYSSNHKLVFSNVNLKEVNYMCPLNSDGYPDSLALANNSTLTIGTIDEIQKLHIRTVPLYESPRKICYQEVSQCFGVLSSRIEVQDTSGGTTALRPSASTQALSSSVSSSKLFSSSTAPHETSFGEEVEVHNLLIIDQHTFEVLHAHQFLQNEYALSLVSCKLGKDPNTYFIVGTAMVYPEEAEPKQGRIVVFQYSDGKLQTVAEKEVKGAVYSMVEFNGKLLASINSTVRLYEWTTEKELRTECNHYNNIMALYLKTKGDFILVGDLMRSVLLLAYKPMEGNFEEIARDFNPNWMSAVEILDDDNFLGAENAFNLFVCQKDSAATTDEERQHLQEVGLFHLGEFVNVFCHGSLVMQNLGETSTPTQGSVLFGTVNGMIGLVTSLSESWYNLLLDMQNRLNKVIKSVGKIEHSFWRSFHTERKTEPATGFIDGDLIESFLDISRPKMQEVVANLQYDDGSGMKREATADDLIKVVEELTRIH

IKZF3 = biological target: T3, IKZF3 (Homo sapiens, UniProt Q96SW2+Q9UKT9); experiment: as above; type: cell-based
T3 construct: effects of the compounds of the present disclosure on the expression of target proteins in cells; endogenous in cells; host or cells: human PBMCs (Milecell Biotechnologies)
T3 sequence (Q9UKT9 whole entry): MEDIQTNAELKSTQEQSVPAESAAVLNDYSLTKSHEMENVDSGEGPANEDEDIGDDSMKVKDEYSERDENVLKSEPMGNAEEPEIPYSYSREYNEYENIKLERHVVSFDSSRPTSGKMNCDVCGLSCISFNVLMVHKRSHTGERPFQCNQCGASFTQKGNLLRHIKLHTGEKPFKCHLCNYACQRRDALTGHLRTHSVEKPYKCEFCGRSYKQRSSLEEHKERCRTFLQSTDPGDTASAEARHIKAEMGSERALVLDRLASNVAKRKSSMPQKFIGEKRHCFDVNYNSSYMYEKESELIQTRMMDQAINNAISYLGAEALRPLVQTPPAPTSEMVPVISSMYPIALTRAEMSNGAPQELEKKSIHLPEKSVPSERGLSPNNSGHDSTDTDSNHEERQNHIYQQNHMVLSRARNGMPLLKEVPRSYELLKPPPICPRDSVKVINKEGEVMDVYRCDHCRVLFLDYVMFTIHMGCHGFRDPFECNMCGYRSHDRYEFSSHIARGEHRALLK
T3 sequence (Q96SW2 whole entry): as the sequence (Q96SW2 whole entry) above
T3 sequence (Q16531 whole entry partner): as the sequence (Q16531 whole entry partner) above

IKZF1 = biological target: T4, IKZF1 (Homo sapiens, UniProt Q13422+Q96SW2); experiment: as above; type: cell-based
T4 construct: effects of the compounds of the present disclosure on the expression of target proteins in cells; endogenous in cells; host or cells: human PBMCs (Milecell Biotechnologies)
T4 sequence (Q13422 whole entry): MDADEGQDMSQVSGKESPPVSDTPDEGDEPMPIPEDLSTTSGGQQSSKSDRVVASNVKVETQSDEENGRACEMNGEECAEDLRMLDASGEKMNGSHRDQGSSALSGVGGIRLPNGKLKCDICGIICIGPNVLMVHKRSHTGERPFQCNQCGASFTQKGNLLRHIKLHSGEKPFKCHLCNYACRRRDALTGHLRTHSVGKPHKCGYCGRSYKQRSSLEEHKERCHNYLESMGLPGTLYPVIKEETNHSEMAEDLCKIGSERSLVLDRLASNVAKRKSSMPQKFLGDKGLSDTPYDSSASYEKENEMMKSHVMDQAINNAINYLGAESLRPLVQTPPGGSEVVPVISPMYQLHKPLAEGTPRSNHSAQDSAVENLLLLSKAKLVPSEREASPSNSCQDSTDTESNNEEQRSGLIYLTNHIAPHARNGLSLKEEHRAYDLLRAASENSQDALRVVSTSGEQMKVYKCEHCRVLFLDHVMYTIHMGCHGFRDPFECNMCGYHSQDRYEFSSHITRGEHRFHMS
T4 sequence (Q96SW2 whole entry): as the sequence (Q96SW2 whole entry) above
T4 sequence (Q16531 whole entry partner): as the sequence (Q16531 whole entry partner) above

IKZF2 = biological target: T5, IKZF2 (Homo sapiens, UniProt Q96SW2+Q9UKS7); experiment: as above; type: cell-based
T5 construct: effects of the compounds of the present disclosure on the expression of target proteins in cells; endogenous in cells; host or cells: human PBMCs (Milecell Biotechnologies)
T5 sequence (Q9UKS7 whole entry): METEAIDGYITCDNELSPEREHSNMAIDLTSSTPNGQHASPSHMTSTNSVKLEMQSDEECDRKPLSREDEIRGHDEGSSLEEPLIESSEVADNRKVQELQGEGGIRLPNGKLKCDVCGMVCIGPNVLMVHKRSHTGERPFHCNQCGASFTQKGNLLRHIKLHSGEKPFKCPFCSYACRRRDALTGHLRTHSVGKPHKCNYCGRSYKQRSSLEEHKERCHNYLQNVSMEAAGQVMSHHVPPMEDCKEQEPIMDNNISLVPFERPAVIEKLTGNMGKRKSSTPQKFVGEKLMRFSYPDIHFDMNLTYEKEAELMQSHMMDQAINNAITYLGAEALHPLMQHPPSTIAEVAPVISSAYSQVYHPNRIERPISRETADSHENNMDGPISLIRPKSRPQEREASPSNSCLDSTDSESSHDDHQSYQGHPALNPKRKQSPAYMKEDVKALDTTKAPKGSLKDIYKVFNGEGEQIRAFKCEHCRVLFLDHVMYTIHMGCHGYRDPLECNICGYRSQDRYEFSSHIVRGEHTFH
T5 sequence (Q96SW2 whole entry): as the sequence (Q96SW2 whole entry) above
T5 sequence (Q16531 whole entry partner): as the sequence (Q16531 whole entry partner) above

GSPT1 = experiment: as above; type: cell-based, Human
[1] = biological target: T6, human Cereblon WT GST-tagged protein (Homo sapiens, UniProt Q96SW2); experiment: CRBN-binding affinity, HTRF (CEREBLON BINDING kit); conditions: for inhibition at 0.5 µM: read-out: Inhibition Rate at 0.5 µM (%); for inhibition at 2 µM: read-out: Inhibition Rate at 2 µM (%)
T6 construct: purchased CISBIO 64BDCRBNPEH
T6 sequence (Q96SW2 whole entry): as the sequence (Q96SW2 whole entry) above

[2] = system: Human myeloid monocytic leukemia cell (MV-4-11); experiment: Tumor cell proliferation inhibition (CellTiter-Meiluncell luminescent cell viability assay); conditions: MV4-11, 96 h; for inhibition at 0.01 µM: read-out: Inhibition Rate at 10 nM (%); for inhibition at 0.5 µM: read-out: Inhibition Rate at 500 nM (%)
[3] = system: Human multiple myeloma peripheral blood B lymphocyte cell (RPMI-8226); experiment: as above; conditions: RPMI-8226, 96 h; for inhibition at 0.01 µM: read-out: Inhibition Rate at 10 nM (%); for inhibition at 0.5 µM: read-out: Inhibition Rate at 500 nM (%)
[4] = system: Human acute T lymphocytic leukemia cell (Molt4); experiment: as above; conditions: MOLT-4, 96 h
[5] = system: Human multiple myeloma cell (MM.1S); experiment: as above; conditions: for inhibition at 0.01 µM / inhibition at 0.5 µM: Homo sapiens, MM1.S, 96 h; for inhibition at 0.01 µM: read-out: Inhibition Rate at 10 nM (%); for inhibition at 0.5 µM: read-out: Inhibition Rate at 500 nM (%)
[6] = Western blot, 24 hours of compound treatment, compounds tested at 50 nM and 500 nM (concentration for the table not stated)
[7] = 24 hours treatment, compounds at 50 nM and 500 nM (concentration behind the class not stated)

T1 sequence (P48729 whole entry): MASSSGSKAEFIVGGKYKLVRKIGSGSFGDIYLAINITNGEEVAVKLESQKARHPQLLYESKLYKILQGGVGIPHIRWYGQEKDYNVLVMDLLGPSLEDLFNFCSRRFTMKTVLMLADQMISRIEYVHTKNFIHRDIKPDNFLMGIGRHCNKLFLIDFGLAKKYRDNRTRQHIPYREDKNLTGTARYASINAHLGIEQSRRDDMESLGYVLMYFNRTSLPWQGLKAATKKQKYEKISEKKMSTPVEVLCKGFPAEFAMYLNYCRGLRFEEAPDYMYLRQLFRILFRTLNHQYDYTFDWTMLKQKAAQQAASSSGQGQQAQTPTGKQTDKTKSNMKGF
T1 sequence (Q96SW2 whole entry): as the sequence (Q96SW2 whole entry) above
T1 sequence (Q16531 whole entry partner): as the sequence (Q16531 whole entry partner) above

Compound: O=C1CCC(N2Cc3c(CN4CCN(C(c5ccc(F)cc5)c5ccc(F)cc5)CC4)cccc3C2=S)C(=O)N1 (centres unmarked) [GT-08202, 3-(4-((4-(bis(4-fluorophenyl)methyl)piperazin-1-yl)methyl)-1-thioxoisoindolin-2-yl)piperidine-2,6-dione]
- CK1α substrate protein remaining % (CK1α; [6]): B (80%< substrate protein remaining %≤ 100%)
- Wee1 substrate protein remaining % (WEE1; [6]): A (0% ≤ substrate protein remaining % ≤ 80%)
- IKZF3 substrate protein remaining % (IKZF3; [6]): A (0% ≤ substrate protein remaining % ≤ 80%)
- IKZF 1 substrate protein remaining % (IKZF1; [6]): A (0% ≤ substrate protein remaining % ≤ 80%)
- IKZF2 substrate protein remaining % (IKZF2; [6]): A (0% ≤ substrate protein remaining % ≤ 80%)
- GSPT1 substrate protein remaining % (GSPT1; [6]): A (0% ≤ substrate protein remaining % ≤ 80%)
- inhibition at 0.5 µM [1]: 30 to 40%
- inhibition at 2 µM [1]: 60 to 80%
- inhibition at 0.01 µM [2]: 30 to 40%
- inhibition at 0.5 µM [2]: 40 to 60%
- inhibition at 0.01 µM [3]: 20 to 30%
- inhibition at 0.5 µM [3]: 40 to 50%

Compound: O=C1CCC(N2Cc3cc(CN4CCC(c5cccc(Br)c5)CC4)ccc3C2=S)C(=O)N1 (centres unmarked) [GT-08617, 3-(5-((4-(3-bromophenyl)piperidin-1-yl)methyl)-1-thioxoisoindolin-2-yl)piperidine-2,6-dione]
- CK1α substrate protein remaining % (CK1α; [6]): B (80%< substrate protein remaining %≤ 100%)
- Wee1 substrate protein remaining % (WEE1; [6]): B (80%< substrate protein remaining %≤ 100%)
- IKZF3 substrate protein remaining % (IKZF3; [6]): B (80%< substrate protein remaining %≤ 100%)
- IKZF 1 substrate protein remaining % (IKZF1; [6]): B (80%< substrate protein remaining %≤ 100%)
- IKZF2 substrate protein remaining % (IKZF2; [6]): B (80%< substrate protein remaining %≤ 100%)
- GSPT1 substrate protein remaining % (GSPT1; [6]): A (0% ≤ substrate protein remaining % ≤ 80%)
- inhibition at 0.01 µM ([4]; read-out: Inhibition Rate at 10 nM (%)): 20 to 30%
- inhibition at 0.5 µM ([4]; read-out: Inhibition Rate at 500 nM (%)): 80 to 100%
- inhibition at 0.5 µM [1]: 40 to 53%
- inhibition at 2 µM [1]: 80 to 100%
- inhibition at 0.01 µM [2]: 5 to 10%
- inhibition at 0.5 µM [2]: 80 to 100%
- inhibition at 0.01 µM [5]: 30 to 40%
- inhibition at 0.5 µM [5]: 80 to 100%
- inhibition at 0.01 µM [3]: 10 to 20%
- inhibition at 0.5 µM [3]: 50 to 60%

Compound: N#Cc1ccc(N2CCN(Cc3ccc(COc4cccc5c4CN([C@H]4CCC(=O)NC4=O)C5=S)cc3)CC2)c(F)c1 [GT-05957, (S)-4-(4-(4-(((2-(2,6-dioxopiperidin-3-yl)-1-thioxoisoindolin-4-yl)oxy)methyl)benzyl)piperazin-1-yl)-3-fluorobenzonitrile]
- CK1α substrate protein remaining % (CK1α; [7]): B (80%< substrate protein remaining %≤ 100%)
- Wee1 substrate protein remaining % (WEE1; [7]): B (80%< substrate protein remaining %≤ 100%)
- IKZF3 substrate protein remaining % (IKZF3; [7]): A (0% ≤ substrate protein remaining % ≤ 80%)
- IKZF 1 substrate protein remaining % (IKZF1; [7]): A (0% ≤ substrate protein remaining % ≤ 80%)
- IKZF2 substrate protein remaining % (IKZF2; [7]): A (0% ≤ substrate protein remaining % ≤ 80%)
- GSPT1 substrate protein remaining % (GSPT1; [7]): A (0% ≤ substrate protein remaining % ≤ 80%)
- IC50 ([1]; CRBN binding, HTRF, 3 hours at room temperature, read-out: HTRF IC50): 100 to 500 nM
- inhibition at 0.01 µM [2]: 25 to 30%
- inhibition at 0.5 µM [2]: 40 to 60%
- inhibition at 0.01 µM [5]: 80 to 100%
- inhibition at 0.5 µM [5]: 80 to 100%
- inhibition at 0.01 µM [3]: 50 to 60%
- inhibition at 0.5 µM [3]: 60 to 70%

Compound: O=C1CCC(N2Cc3c(CN4CCN(c5cccc6sccc56)CC4)cccc3C2=S)C(=O)N1 (centres unmarked) [GT-08364, 3-(4-((4-(benzo[b]thiophen-4-yl)piperazin-1-yl)methyl)-1-thioxoisoindolin-2-yl)piperidine-2,6-dione]
- CK1α substrate protein remaining % (CK1α; [6]): B (80%< substrate protein remaining %≤ 100%)
- Wee1 substrate protein remaining % (WEE1; [6]): A (0% ≤ substrate protein remaining % ≤ 80%)
- IKZF3 substrate protein remaining % (IKZF3; [6]): B (80%< substrate protein remaining %≤ 100%)
- IKZF 1 substrate protein remaining % (IKZF1; [6]): B (80%< substrate protein remaining %≤ 100%)
- IKZF2 substrate protein remaining % (IKZF2; [6]): B (80%< substrate protein remaining %≤ 100%)
- GSPT1 substrate protein remaining % (GSPT1; [6]): A (0% ≤ substrate protein remaining % ≤ 80%)
- inhibition at 0.5 µM [1]: 40 to 53%
- inhibition at 2 µM [1]: 80 to 100%
- inhibition at 0.01 µM [5]: 40 to 50%
- Inhibition Rate at 500 nM (%) ([5]; MM.1S, 500 nM, 96 hours): la8
- inhibition at 0.01 µM [3]: 20 to 30%
- inhibition at 0.5 µM [3]: 40 to 50%

Compound: O=C1CCC(N2Cc3c(CN4CCN(C(=O)C5=C(c6ccc(F)cc6)CCCC5)CC4)cccc3C2=S)C(=O)N1 (centres unmarked) [GT-08294, 3-(4-((4-(4'-fluoro-3,4,5,6-tetrahydro-[1,1'-biphenyl]-2-carbonyl)piperazin-1-yl)methyl)-1-thioxoisoindolin-2-yl)piperidine-2,6-dione]
- CK1α substrate protein remaining % (CK1α; [6]): A (0% ≤ substrate protein remaining % ≤ 80%)
- Wee1 substrate protein remaining % (WEE1; [6]): B (80%< substrate protein remaining %≤ 100%)
- IKZF3 substrate protein remaining % (IKZF3; [6]): B (80%< substrate protein remaining %≤ 100%)
- IKZF 1 substrate protein remaining % (IKZF1; [6]): B (80%< substrate protein remaining %≤ 100%)
- IKZF2 substrate protein remaining % (IKZF2; [6]): B (80%< substrate protein remaining %≤ 100%)
- GSPT1 substrate protein remaining % (GSPT1; [6]): B (80%< substrate protein remaining %≤ 100%)
- inhibition at 0.5 µM [1]: 30 to 40%
- inhibition at 2 µM [1]: 80 to 100%
- inhibition at 0.01 µM [2]: 40 to 60%
- inhibition at 0.5 µM [2]: 60 to 80%
- inhibition at 0.01 µM [3]: 20 to 30%
- inhibition at 0.5 µM [3]: 40 to 50%

Compound: O=C1CCC(N2Cc3c(CN4C[C@@H]5C[C@H]4CN5C(c4ccccc4)c4ccccc4)cccc3C2=S)C(=O)N1 (stereo partly drawn) [GT-08207, 3-(4-(((1 S,4S)-5-benzhydryl-2,5-diazabicyclo[2.2.1]heptan-2-yl)methyl)-1-thioxoisoindolin-2-yl)piperidine-2,6-dione]
- CK1α substrate protein remaining % (CK1α; [6]): B (80%< substrate protein remaining %≤ 100%)
- Wee1 substrate protein remaining % (WEE1; [6]): A (0% ≤ substrate protein remaining % ≤ 80%)
- IKZF3 substrate protein remaining % (IKZF3; [6]): B (80%< substrate protein remaining %≤ 100%)
- IKZF 1 substrate protein remaining % (IKZF1; [6]): A (0% ≤ substrate protein remaining % ≤ 80%)
- IKZF2 substrate protein remaining % (IKZF2; [6]): B (80%< substrate protein remaining %≤ 100%)
- GSPT1 substrate protein remaining % (GSPT1; [6]): A (0% ≤ substrate protein remaining % ≤ 80%)
- inhibition at 0.5 µM [1]: 40 to 53%
- inhibition at 2 µM [1]: 60 to 80%
- inhibition at 0.01 µM [3]: 50 to 60%
- inhibition at 0.5 µM [3]: 60 to 70%

Compound: O=C1CCC(N2Cc3cc(CN4CCN(c5cc(Cl)cc(Cl)c5)CC4)ccc3C2=S)C(=O)N1 (centres unmarked) [GT-08624, 3-(5-((4-(3,5-dichlorophenyl)piperazin-1-yl)methyl)-1-thioxoisoindolin-2-yl)piperidine-2,6-dione]
- CK1α substrate protein remaining % (CK1α; [6]): B (80%< substrate protein remaining %≤ 100%)
- Wee1 substrate protein remaining % (WEE1; [6]): B (80%< substrate protein remaining %≤ 100%)
- IKZF3 substrate protein remaining % (IKZF3; [6]): B (80%< substrate protein remaining %≤ 100%)
- IKZF 1 substrate protein remaining % (IKZF1; [6]): B (80%< substrate protein remaining %≤ 100%)
- IKZF2 substrate protein remaining % (IKZF2; [6]): B (80%< substrate protein remaining %≤ 100%)
- GSPT1 substrate protein remaining % (GSPT1; [6]): A (0% ≤ substrate protein remaining % ≤ 80%)
- inhibition at 0.5 µM [1]: 30 to 40%
- inhibition at 2 µM [1]: 80 to 100%
- inhibition at 0.01 µM [2]: 18 to 25%
- inhibition at 0.5 µM [2]: 80 to 100%
- inhibition at 0.01 µM [5]: 20 to 30%
- inhibition at 0.5 µM [5]: 80 to 100%
- inhibition at 0.01 µM [3]: 10 to 20%
- inhibition at 0.5 µM [3]: 60 to 70%
